Assay results as given in paper PMC5109907, “Enhancing succinic acid biosynthesis in Escherichia coli by engineering its global transcription factor, catabolite repressor/activator (Cra)” (Scientific Reports, 2016).

Columns and labels:
[1] = molecular target: T1, Cra (catabolite repressor/activator) (Escherichia coli, UniProt P0ACP1, R57K/A58G/G59Q/R60Q/S75H/D148I/R149I, form not given); test: isothermal titration calorimetry, one-site fit; format: binding; settings: 25 °C; 15 μM protein, 50 mM FBP injected; Tang1541 mutant
T1 construct: full-length, His6-tagged (tag encoded by the 3' primer, C-terminal), pET28a, expressed in E. coli BL21, Ni resin

[2] = molecular target: T2, Cra (catabolite repressor/activator) (Escherichia coli, UniProt P0ACP1, R57K/A58T/G59N/R60Q/S75H/D148I/R149I, form not given); test: isothermal titration calorimetry, one-site fit; format: binding; settings: 25 °C; 15 μM protein, 50 mM FBP injected; Tang1544 mutant
T2 construct: full-length, His6-tagged (tag encoded by the 3' primer, C-terminal), pET28a, expressed in E. coli BL21, Ni resin

[3] = molecular target: T3, Cra (catabolite repressor/activator) (Escherichia coli, UniProt P0ACP1); test: isothermal titration calorimetry, one-site fit; format: binding; settings: 25 °C; 15 μM protein, 50 mM FBP injected
T3 construct: full-length, His6-tagged (tag encoded by the 3' primer, C-terminal), pET28a, expressed in E. coli BL21, Ni resin

[4] = molecular target: Cra wild type (Escherichia coli, UniProt P0ACP1 1-334); test: EMSA; no FBP; EMSA: 50 nM oligonucleotide mixture annealed in TE buffer, with or without 1 mM FBP, 15 min at 30 C, nondenaturing 10% polyacrylamide gel, ethidium bromide; binding salt and pH not stated; settings: protein: recombinant; tags: His6; chain copies: 4; label: none (ethidium bromide stain); blunt
[5] = molecular target: Cra mutant (Tang1544) (Escherichia coli, UniProt P0ACP1 1-334, R57K;A58T;G59N;R60Q;S75H;D148I;R149I); test: EMSA; no FBP; less free DNA than Tang1534; EMSA: 50 nM oligonucleotide mixture annealed in TE buffer, with or without 1 mM FBP, 15 min at 30 C, nondenaturing 10% polyacrylamide gel, ethidium bromide; binding salt and pH not stated; settings: protein: recombinant; tags: His6; chain copies: 2; label: none (ethidium bromide stain); blunt

Row | Kd [1] [nM] | Kd [2] [nM] | Kd [3] [nM] | Molecule | binding result [4] | binding result [5]
1 | 130 ± 37 | 95 ± 24 | 1400 | O=P(O)(O)OC[C@H]1OC(O)(COP(=O)(O)O)[C@@H](O)[C@@H]1O (some centres unmarked) [FBP, fructose-1,6-bisphosphate] | – | –
2 | – | – | – | aceBAK 18-bp Cra site (dsDNA) DNA 1: TCGTTAAGCGATTCAGCA DNA 2: TGCTGAATCGCTTAACGA | binds | binds
